Test results published in paper PMC11881906, “Development of xanthone derivatives as effective broad-spectrum antimicrobials: Disrupting cell wall and inhibiting DNA synthesis” (Science Advances, 2025).
Values after ≈ are worked out from the molar mass of the structure shown.

Key:
A. baumannii ATCC 17978 = assay: MIC, broth microdilution; format: cell-based; conditions: Acinetobacter baumannii, ATCC17978; 24-hour incubation, MHB
Protocol: (§1) MIC was determined using the broth microdilution method in accordance with Clinical and Laboratory Standards Institute guidelines. All compounds were dissolved in dimethyl sulfoxide (DMSO; final DMSO concentration of less than 0.5%) and sterile double-distilled water and then diluted with Mueller-Hinton broth (MHB). Each compound’s stock solution was serially twofold diluted, resulting in concentrations ranging from 0.39 to 100 μg/ml, and thereafter added to sterile 96-well plates. All bacterial cell suspensions were adjusted in MHB to attain a starting inoculum of 1 × 10^6 cells/ml. A total of 100 μl volume of the bacterial suspension was then added to each well. Following a 24-hour incubation at 37°C, the optical density at 600 nm (OD600) was confirmed by measuring absorbance at 600 nm with a BioTek microplate reader. […] All measurements were repeated three times with duplicates each time.

S. aureus ATCC 29213 [1] = assay: SYTOX Green uptake assay; format: cell-based, Staphylococcus aureus; conditions: up to 8× MIC
Protocol: The SYTOX Green uptake was measured to explore the inner membrane permeability. The overnight bacteria culture was centrifuged and resuspended in sterile PBS to obtain an OD600 of 0.2. SYTOX Green dye was added to a final concentration of 0.3 μM and incubated for 20 min without being exposed to the light. Fluorescence was measured at excitation and emission wavelengths of 504 and 523 nm, respectively. […] The changes in fluorescence intensity were continuously monitored for 1 hour. All measurements were repeated three times with duplicates each time.

LPS = assay: BODIPY-TR-cadaverine displacement assay; format: binding
Protocol: (§2) The percentage of displacement from LTA-BODIPY/LPS-BODIPY by test compounds was determined according to BODIPY cadaverine displacement assay. […] The mixture was incubated in the dark for 30 min, and then the fluorescence was monitored at an excitation wavelength of 580 nm and an emission wavelength of 620 nm using a BioTek multidetector microplate reader. The percentage of displacement from LTA-BODIPY/LPS-BODIPY was calculated by the following formula: % Displacement = (FS − Fmin)/(Fmax − Fmin) × 100. Where FS is the fluorescence intensity observed at a given test compound concentration, Fmin is the fluorescence intensity of BODIPY with LTA/LPS and DMSO, and Fmax is the fluorescence intensity of BODIPY with only DMSO. All tests were carried out at least twice and with biological replicates.

LTA = assay: BODIPY-TR-cadaverine displacement assay; format: binding
Protocol: as §2

K. pneumoniae = assay: MIC, summary over K. pneumoniae strains; format: cell-based; conditions: Klebsiella pneumoniae, two strains; read-out: MICs against K. pneumoniae
Protocol: as §1

[2] = biological target: T1, topoisomerase IV from E. coli (Escherichia coli, UniProt P0AFI2+P20083); assay: Topoisomerase IV decatenation inhibition assay; format: biochemical; conditions: 1× MIC
T1 construct: purchased ProFoldin (Worcester, MA)
Protocol: E. coli topoisomerase enzymes (II and IV) were supplied by ProFoldin (Worcester, MA), and assays were performed according to the manufacturer’s instructions. Briefly, the DNA supercoiling assay was conducted in a volume of 40 μl containing 24 μl of H2O, 4 μl of 10× buffer, 4 μl of 10× relaxed DNA, 4 μl of 10× enzyme, and 4 μl of 10 mM adenosine triphosphate (ATP). Following a 60-min incubation at room temperature, 200 μl of H2O was added to each reaction mixture. Topoisomerase IV decatenation inhibition assay was conducted in a volume of 50 μl containing 38.5 μl of H2O, 5 μl of 10× buffer, 5 μl of 10× concatenated DNA, 0.5 μl of 100× enzyme, and 1 μl of 10 mM ATP. After 60 min of incubation at 37°C, 5 μl of 0.4 M EDTA was added to stop the reaction. […]
In the supercoiling inhibition assay, the fluorescence intensity was measured using freshly prepared 1× H19 dye, which was prepared by diluting 100× H19 dye with 10 mM tris-HCl and 10 mM NaCl (pH 7.0). […] In the decatenation inhibition assay, the change in fluorescence intensity was monitored using the 1× fluorescence dye after diluting the 20× dye with water. The reaction solution eluted from the column was mixed with 150 μl of 1× fluorescence dye. The fluorescence intensity for both assays was lastly detected at 535 nm using an excitation wavelength of 485 nm. […]

S. aureus ATCC 29213 [3] = assay: Serial passage resistance induction; format: cell-based, Staphylococcus aureus; conditions: 20-day passages at 0.5× MIC
Protocol: The bacteria were grown in a medium containing 0.5× MIC of each compound to prepare the bacterial suspension for the next MIC determination. The MICs were then recorded after incubation at 37°C for 24 hours. Daily passages were continued until the initial MIC increased by more than fourfold. The stability of acquired resistance was investigated by MIC determination and repeated for 20 days.

rabbit erythrocytes = assay: Hemolysis assay; format: cell-based; conditions: concentration causing 50% hemolysis of red blood cells; 1 hour, 37°C
Protocol: The hemolytic activity of antimicrobial agents was investigated as previously described ([70]). Briefly, the rabbit erythrocytes were centrifuged at 2500 rpm for 3 min before being washed twice with sterile phosphate-buffered saline (PBS) (pH 7.4). Subsequently, the erythrocytes were diluted with PBS to a final concentration of 8% (v/v). The DMSO-dissolved compounds were twofold serially diluted in PBS to achieve a final concentration with DMSO less than 0.5%. […] Sterile PBS and 0.2% Triton X-100 were used as negative and positive controls, respectively. After 1 hour of incubation at 37°C, the tested samples were centrifuged at 2500 rpm for 5 min, and aliquots of the supernatant were added to 96-well microplates. The hemoglobin release was determined by measuring the absorbance at 576 nm using a BioTek multimode reader. The percentage of hemolytic activity was calculated using the following formula: Hemolysis rate (%) = [OD576 (compound) − OD576 (PBS)]/[OD576 (Triton X-100) − OD576 (PBS)] × 100. All measurements were repeated three times with duplicates each time.

T1 sequence (P20083 whole entry): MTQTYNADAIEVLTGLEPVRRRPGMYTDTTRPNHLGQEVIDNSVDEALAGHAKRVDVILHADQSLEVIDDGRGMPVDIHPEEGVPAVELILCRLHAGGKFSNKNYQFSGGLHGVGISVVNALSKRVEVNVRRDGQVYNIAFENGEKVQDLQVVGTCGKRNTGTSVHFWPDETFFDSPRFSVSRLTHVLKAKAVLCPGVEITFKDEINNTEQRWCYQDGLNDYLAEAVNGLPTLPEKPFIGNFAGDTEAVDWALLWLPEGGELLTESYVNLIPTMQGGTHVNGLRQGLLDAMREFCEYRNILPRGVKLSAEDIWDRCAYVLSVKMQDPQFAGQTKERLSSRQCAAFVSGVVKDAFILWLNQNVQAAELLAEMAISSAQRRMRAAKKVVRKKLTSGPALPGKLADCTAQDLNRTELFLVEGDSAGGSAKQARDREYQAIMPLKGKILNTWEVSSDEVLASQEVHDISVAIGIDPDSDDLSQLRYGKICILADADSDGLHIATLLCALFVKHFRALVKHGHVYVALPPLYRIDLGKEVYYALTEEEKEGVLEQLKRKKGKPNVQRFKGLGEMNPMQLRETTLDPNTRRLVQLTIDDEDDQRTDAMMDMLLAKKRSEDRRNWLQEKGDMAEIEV
T1 sequence (P0AFI2 whole entry): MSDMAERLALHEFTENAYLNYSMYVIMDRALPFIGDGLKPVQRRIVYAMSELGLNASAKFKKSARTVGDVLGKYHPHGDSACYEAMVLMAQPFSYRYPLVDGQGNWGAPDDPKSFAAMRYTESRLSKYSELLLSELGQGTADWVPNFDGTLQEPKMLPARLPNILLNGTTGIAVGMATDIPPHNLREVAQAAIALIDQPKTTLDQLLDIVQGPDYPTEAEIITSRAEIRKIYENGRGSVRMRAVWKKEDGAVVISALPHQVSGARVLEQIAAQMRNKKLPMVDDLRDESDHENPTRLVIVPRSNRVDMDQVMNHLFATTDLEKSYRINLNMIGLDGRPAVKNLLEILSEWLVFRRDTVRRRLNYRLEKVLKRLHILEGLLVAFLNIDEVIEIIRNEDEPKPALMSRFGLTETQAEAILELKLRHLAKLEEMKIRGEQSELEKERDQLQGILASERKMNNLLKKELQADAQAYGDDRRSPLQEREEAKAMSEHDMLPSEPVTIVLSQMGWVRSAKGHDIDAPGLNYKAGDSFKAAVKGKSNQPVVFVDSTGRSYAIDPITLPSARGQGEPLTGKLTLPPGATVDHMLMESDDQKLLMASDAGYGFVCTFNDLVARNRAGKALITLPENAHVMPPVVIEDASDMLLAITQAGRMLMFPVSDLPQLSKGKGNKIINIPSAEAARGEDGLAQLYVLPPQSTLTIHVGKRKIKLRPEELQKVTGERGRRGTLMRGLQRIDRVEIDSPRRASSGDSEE

CC(C)=CCOc1cc(OCCCNC(=N)N)cc2oc3cc(OCCCNC(=N)N)ccc3c(=O)c12 [XT17]
MIC90 (A. baumannii ATCC 17978): 25 µg/mL (≈ 49 µM)
SYTOX Green fluorescence intensity (cytoplasmic membrane permeabilization) (S. aureus ATCC 29213 [1]): did not show a notable increase
% Displacement from LPS (LPS; 1× MIC): 39.22%
% Displacement from LPS (LPS; 2× MIC): 52.67%
% Displacement from LPS (LPS; 4× MIC): 69.53%
% Displacement from LPS (LPS; 8× MIC): 75.50%
% Displacement from LTA (LTA; 1× MIC): 2.86%
% Displacement from LTA (LTA; 2× MIC): 14.81%
% Displacement from LTA (LTA; 4× MIC): 17.88%
% Displacement from LTA (LTA; 8× MIC): 32.95%
MIC (K. pneumoniae): 6.25 to 12.5 µg/mL (≈ 12.2 to 24.5 µM)
Inhibition of topoisomerase IV (%) [2]: 36.93%
increase in MIC values during passages (S. aureus ATCC 29213 [3]): no more than fourfold increase
HC50 (rabbit erythrocytes): >200 µg/mL
